In ChEMBL document CHEMBL5291721, “A preclinical secondary pharmacology resource illuminates target-adverse drug reaction associations of marketed drugs” (Nat Commun, 2023):

Tests used:
[1] = target: Beta-2 adrenergic receptor (Homo sapiens, UniProt P07550)
[2] = target: T1, Alpha-1A adrenergic receptor (Homo sapiens, UniProt P35348)
T1 sequence (P35348 whole entry): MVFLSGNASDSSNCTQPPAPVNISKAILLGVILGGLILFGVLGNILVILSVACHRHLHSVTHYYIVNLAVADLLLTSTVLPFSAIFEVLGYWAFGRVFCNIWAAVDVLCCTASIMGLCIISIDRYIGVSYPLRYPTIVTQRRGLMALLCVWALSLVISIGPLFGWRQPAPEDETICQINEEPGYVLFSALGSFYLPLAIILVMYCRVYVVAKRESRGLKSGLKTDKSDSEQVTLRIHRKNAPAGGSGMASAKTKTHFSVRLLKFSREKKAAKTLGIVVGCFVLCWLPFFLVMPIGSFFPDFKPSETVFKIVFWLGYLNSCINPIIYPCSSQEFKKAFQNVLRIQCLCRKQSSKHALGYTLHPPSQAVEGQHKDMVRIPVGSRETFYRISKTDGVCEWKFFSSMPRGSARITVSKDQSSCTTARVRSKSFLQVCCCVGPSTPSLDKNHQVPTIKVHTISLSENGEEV

Vasopressin V2 receptor = Vasopressin V2 receptor (Homo sapiens, UniProt P30518)
Sequence of Vasopressin V2 receptor (P30518 whole entry): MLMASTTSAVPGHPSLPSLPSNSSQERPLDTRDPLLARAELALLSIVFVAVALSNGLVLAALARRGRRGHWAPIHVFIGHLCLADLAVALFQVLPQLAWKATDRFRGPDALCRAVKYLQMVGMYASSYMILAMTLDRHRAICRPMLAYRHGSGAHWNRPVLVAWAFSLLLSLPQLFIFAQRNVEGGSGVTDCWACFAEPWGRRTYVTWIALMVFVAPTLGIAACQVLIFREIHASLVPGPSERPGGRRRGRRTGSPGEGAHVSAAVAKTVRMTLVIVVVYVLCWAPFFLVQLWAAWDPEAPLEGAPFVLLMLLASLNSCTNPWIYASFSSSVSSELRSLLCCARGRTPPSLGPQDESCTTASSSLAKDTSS

[3] = target: T2, Cholecystokinin receptor type A (Homo sapiens, UniProt P32238)
T2 sequence (P32238 whole entry): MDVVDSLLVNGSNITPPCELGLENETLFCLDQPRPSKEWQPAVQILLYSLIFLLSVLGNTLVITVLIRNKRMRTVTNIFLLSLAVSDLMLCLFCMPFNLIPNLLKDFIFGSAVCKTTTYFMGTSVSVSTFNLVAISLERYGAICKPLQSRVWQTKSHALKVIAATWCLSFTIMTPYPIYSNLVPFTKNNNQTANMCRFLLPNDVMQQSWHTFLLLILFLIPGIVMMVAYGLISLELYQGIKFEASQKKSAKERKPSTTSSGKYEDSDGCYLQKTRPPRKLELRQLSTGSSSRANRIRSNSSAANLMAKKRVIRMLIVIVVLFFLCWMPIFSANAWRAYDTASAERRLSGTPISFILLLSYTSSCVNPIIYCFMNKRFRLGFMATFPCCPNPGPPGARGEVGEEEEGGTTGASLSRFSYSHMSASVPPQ

[4] = target: Sodium-dependent serotonin transporter (Homo sapiens, UniProt P31645)
Sequence of Sodium-dependent serotonin transporter (P31645 whole entry): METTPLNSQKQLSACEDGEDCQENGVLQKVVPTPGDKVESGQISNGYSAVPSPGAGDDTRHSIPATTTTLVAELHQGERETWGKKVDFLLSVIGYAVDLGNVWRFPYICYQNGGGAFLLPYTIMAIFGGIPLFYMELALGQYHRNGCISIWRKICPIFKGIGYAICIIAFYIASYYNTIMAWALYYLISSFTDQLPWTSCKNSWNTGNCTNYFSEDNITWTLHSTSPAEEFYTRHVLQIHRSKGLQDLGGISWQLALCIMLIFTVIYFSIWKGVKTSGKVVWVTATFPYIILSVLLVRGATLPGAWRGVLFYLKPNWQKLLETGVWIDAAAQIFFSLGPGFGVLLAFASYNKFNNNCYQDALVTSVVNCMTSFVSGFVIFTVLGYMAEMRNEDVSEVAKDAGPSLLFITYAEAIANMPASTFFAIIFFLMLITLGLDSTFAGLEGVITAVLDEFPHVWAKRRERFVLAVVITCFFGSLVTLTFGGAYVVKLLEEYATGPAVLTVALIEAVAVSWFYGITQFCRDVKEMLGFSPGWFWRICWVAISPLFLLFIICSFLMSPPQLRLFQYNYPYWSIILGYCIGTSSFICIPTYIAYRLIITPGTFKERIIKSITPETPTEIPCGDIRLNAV

B2 bradykinin receptor = target: T3, B2 bradykinin receptor (Homo sapiens, UniProt P30411)
T3 sequence (P30411 whole entry): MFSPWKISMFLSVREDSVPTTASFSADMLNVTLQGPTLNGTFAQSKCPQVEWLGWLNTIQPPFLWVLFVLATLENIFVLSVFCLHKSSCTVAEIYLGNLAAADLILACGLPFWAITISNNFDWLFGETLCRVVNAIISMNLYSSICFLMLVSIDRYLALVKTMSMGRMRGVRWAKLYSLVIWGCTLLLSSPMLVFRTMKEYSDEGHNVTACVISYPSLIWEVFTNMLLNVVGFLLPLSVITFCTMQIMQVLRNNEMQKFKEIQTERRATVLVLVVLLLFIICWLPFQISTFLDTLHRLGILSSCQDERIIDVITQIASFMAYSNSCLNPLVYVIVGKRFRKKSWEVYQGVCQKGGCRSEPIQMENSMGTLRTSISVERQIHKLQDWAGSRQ

Motilin receptor = Motilin receptor (Homo sapiens, UniProt O43193)
Sequence of Motilin receptor (O43193 whole entry): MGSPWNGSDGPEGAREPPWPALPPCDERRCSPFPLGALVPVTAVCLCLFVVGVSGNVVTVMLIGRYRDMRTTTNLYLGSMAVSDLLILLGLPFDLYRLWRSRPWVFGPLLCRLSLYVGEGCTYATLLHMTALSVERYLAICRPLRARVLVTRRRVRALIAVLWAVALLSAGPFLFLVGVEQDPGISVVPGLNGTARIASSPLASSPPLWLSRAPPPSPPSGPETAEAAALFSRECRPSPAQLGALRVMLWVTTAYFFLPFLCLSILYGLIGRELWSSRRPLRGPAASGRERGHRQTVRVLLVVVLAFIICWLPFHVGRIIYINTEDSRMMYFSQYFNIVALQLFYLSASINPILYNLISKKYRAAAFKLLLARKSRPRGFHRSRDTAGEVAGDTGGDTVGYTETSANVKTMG

Progesterone receptor = target: T4, Progesterone receptor (Homo sapiens, UniProt P06401); assay type: functional
T4 sequence (P06401 whole entry): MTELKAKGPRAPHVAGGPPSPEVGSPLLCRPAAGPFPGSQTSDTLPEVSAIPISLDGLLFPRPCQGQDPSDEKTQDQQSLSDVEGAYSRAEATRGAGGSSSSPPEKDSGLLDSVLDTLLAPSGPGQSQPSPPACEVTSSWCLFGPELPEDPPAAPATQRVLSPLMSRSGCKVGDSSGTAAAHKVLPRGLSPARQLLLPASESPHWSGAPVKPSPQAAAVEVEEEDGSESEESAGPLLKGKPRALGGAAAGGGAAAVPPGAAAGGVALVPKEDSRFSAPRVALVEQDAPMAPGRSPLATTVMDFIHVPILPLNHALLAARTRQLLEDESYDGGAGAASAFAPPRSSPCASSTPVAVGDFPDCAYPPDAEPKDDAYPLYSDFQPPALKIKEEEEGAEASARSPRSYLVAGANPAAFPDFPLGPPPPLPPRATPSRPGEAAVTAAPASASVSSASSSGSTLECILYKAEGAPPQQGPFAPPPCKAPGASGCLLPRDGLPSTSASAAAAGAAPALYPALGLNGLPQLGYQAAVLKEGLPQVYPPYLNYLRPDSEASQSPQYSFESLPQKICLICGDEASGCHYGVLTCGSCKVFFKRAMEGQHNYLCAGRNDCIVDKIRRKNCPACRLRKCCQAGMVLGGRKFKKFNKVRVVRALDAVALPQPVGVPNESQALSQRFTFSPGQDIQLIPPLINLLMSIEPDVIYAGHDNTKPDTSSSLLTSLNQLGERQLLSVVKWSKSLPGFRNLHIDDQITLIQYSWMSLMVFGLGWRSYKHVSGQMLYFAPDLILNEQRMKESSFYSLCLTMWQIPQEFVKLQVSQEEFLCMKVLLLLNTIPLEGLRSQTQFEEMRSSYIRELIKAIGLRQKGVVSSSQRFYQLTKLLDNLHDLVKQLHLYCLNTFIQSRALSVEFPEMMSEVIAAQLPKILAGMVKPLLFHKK

[5] = target: T5, Neuropeptide Y receptor type 1 (Homo sapiens, UniProt P25929)
T5 sequence (P25929 whole entry): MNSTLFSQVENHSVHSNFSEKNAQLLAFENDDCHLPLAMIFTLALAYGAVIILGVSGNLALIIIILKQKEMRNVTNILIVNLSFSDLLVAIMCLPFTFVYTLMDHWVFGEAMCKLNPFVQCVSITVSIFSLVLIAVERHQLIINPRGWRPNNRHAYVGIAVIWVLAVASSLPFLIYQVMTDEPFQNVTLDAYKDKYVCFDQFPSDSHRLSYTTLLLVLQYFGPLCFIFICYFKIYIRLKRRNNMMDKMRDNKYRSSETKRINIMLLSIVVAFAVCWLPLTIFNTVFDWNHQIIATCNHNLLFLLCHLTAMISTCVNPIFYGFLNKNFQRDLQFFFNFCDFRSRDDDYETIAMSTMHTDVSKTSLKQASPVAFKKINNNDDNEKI

[6] = target: 5-hydroxytryptamine receptor 2A (Homo sapiens, UniProt P28223); assay type: functional, cell-based
Sequence of 5-hydroxytryptamine receptor 2A (P28223 whole entry): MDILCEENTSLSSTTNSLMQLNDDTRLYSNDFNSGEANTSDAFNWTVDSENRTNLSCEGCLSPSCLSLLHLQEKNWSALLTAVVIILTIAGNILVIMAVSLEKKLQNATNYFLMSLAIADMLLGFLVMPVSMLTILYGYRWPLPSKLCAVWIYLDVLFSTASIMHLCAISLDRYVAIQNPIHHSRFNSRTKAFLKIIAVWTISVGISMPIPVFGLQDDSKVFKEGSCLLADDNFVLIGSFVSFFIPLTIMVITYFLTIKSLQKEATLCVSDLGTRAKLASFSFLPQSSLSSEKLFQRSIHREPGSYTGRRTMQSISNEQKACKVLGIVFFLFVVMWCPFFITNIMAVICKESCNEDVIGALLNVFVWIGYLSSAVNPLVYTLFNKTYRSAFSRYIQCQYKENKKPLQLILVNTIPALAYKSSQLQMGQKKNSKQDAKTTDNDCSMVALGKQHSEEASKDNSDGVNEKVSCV

Measured: AC50
Further: assay procedure not described here.

Sequence of Beta-2 adrenergic receptor (P07550 whole entry): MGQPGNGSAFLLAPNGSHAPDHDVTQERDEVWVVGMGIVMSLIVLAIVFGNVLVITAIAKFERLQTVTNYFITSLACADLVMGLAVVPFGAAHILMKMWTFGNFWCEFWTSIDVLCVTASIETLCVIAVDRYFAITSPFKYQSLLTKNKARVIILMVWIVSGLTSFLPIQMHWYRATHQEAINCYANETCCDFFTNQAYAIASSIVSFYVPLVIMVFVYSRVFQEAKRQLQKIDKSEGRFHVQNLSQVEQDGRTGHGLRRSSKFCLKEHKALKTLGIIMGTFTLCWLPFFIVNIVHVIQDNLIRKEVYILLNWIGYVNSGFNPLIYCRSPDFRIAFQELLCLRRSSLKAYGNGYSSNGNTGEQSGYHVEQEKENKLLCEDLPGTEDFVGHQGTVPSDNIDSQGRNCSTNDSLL

O=C(O)c1cccc(-c2noc(-c3ccccc3F)n2)c1
> 10 µM: [2]
> 30 µM: [1]

NS(=O)(=O)c1cc(-c2nnn[nH]2)c(NCc2cccs2)cc1Cl [AZOSEMIDE]
> 30 µM: Vasopressin V2 receptor | [3] | [4] | B2 bradykinin receptor | Motilin receptor | Progesterone receptor | [5] | [6] | [1]

C[N+](C)(C)CC(=O)O [BETAINE]
> 30 µM: Vasopressin V2 receptor | [3] | [4] | B2 bradykinin receptor | Motilin receptor | Progesterone receptor | [5] | [6] | [1]

CCCC(=O)N1CCCN(c2nc(N)c3cc(OC)c(OC)cc3n2)CC1 [BUNAZOSIN]
> 30 µM: Vasopressin V2 receptor | [3] | [4] | B2 bradykinin receptor | Motilin receptor | Progesterone receptor | [5] | [6]

C[N+](C)(C)CCOC(N)=O [CARBAMOYLCHOLINE]
> 10 µM: Vasopressin V2 receptor | [3] | B2 bradykinin receptor | Motilin receptor | Progesterone receptor | [5] | [1] | [2]

N[C@@H](CSCC(=O)O)C(=O)O [CARBOCYSTEINE]
> 30 µM: Vasopressin V2 receptor | [3] | [4] | B2 bradykinin receptor | Motilin receptor | Progesterone receptor | [5] | [6] | [1]

CC(C)(N)Cc1ccc(Cl)cc1 [CHLORPHENTERMINE]
> 30 µM: Vasopressin V2 receptor | [3] | B2 bradykinin receptor | [5] | [6]
4.57 µM: [4]
> 10 µM: Motilin receptor | [1] | [2]

CN(C)[C@@H]1C(O)=C(C(N)=O)C(=O)[C@@]2(O)C(O)=C3C(=O)c4c(O)ccc(Cl)c4[C@@H](O)[C@H]3C[C@@H]12 [DEMECLOCYCLINE]
> 10 µM: Vasopressin V2 receptor | [3] | [4] | B2 bradykinin receptor | Motilin receptor | [5] | [6] | [1] | [2]

NS(=O)(=O)c1cc(Cl)c(Cl)c(S(N)(=O)=O)c1 [DICHLORPHENAMIDE]
> 10 µM: Vasopressin V2 receptor | [3] | [4] | B2 bradykinin receptor | Motilin receptor | Progesterone receptor | [5] | [6] | [1] | [2]

O=C(Nc1ccccc1)OCC(CN1CCCCC1)OC(=O)Nc1ccccc1 (stereo not drawn) [DIPERODON]
15 µM: [3]
> 30 µM: Vasopressin V2 receptor | B2 bradykinin receptor | [5] | [6]
> 10 µM: [4] | Motilin receptor | [1] | [2]

C=C1C[C@@H]2[C@H](CC[C@]3(C)C(=O)CC[C@@H]23)[C@@]2(C)C=CC(=O)C=C12 [EXEMESTANE]
> 30 µM: Vasopressin V2 receptor | [3] | [4] | B2 bradykinin receptor | [5] | [6]
> 10 µM: Motilin receptor | [1] | [2]

CC(C(O)c1ccc(O)cc1)N1CCC(Cc2ccccc2)CC1 (stereo not drawn) [IFENPRODIL]
0.28 µM: [4]
> 30 µM: Vasopressin V2 receptor | [3] | B2 bradykinin receptor | Motilin receptor | Progesterone receptor | [5] | [6] | [1]

CS(=O)(=O)Nc1cc2occ(NC=O)c(=O)c2cc1Oc1ccccc1 [IGURATIMOD]
> 30 µM: [4] | Progesterone receptor

CC(=O)N(CC(O)CO)c1c(I)c(C(=O)NCC(O)CO)c(I)c(C(=O)NCC(O)CO)c1I (stereo not drawn) [IOHEXOL]
> 30 µM: Vasopressin V2 receptor | [3] | [4] | B2 bradykinin receptor | [5] | [6] | [1]
> 10 µM: Motilin receptor | [2]

CN(CCCN1c2ccccc2CCc2ccccc21)CC(=O)c1ccc(Cl)cc1 [LOFEPRAMINE]
> 10 µM: B2 bradykinin receptor
20 µM: [1]
> 30 µM: Vasopressin V2 receptor | [3] | Motilin receptor | [5] | [6]

CC(=O)O[C@]1(C(C)=O)CC[C@H]2[C@@H]3C[C@H](C)C4=CC(=O)CC[C@]4(C)[C@H]3CC[C@@]21C [MEDROXYPROGESTERONE ACETATE]
> 30 µM: Vasopressin V2 receptor | [3] | B2 bradykinin receptor | Motilin receptor | [5]

CN(C/C=C/c1ccccc1)Cc1cccc2ccccc12 [NAFTIFINE]
> 10 µM: Motilin receptor
2.15 µM: [2]
> 30 µM: Vasopressin V2 receptor | [3] | B2 bradykinin receptor | Progesterone receptor | [5] | [1]

CN(C)CCCN1c2ccccc2Sc2ccccc21 [PROMAZINE]
0.0171 µM: [2]
> 10 µM: Motilin receptor
> 30 µM: Vasopressin V2 receptor | [3] | B2 bradykinin receptor | [5]
7.6 µM: [1]

O=P(O)(O)C(O)(Cc1cccnc1)P(=O)(O)O [RISEDRONIC ACID]
> 30 µM: Vasopressin V2 receptor | [3] | B2 bradykinin receptor | Motilin receptor | Progesterone receptor | [5] | [1]
> 10 µM: [2]

O=C1CCC(N2C(=O)c3ccccc3C2=O)C(=O)N1 (stereo not drawn) [THALIDOMIDE]
> 10 µM: Motilin receptor | [1] | [2]
> 30 µM: Vasopressin V2 receptor | [3] | B2 bradykinin receptor | [5]
